Data reported in ChEMBL document CHEMBL1147222, “Lowdenic acid: a new antifungal polyketide-derived metabolite from a new fungicolous Verticillium sp” (2003).
In brackets after ≈: the same amount, converted by molar mass.

Legend:
Format in all cases: functional
Aspergillus flavus [1] = assay: Antifungal activity against Aspergillus flavus NRRL 6541 at 250 ug/disk; conditions: read-out: IZ
Aspergillus flavus [2] = assay: Antifungal activity against Aspergillus flavus NRRL 6541
Candida albicans = assay: Antifungal activity against Candida albicans ATCC 90029 at 200 ug/disk by standard disk assay; conditions: read-out: IZ
Staphylococcus aureus = assay: Antibacterial activity against Staphylococcus aureus ATCC 29213 at 200 ug/disk by standard disk assay; conditions: read-out: IZ
Bacillus subtilis = assay: Antibacterial activity against Bacillus subtilis ATCC 6051 at 200 ug/disk by standard disk assay; conditions: read-out: IZ

CCCCCCCCCC[C@@H](C)CCC[C@@]1(C)C=C/C(=C2/C(=O)O[C@H](CC(=O)O)C2=O)O1 [LOWDENIC ACID]
zone of inhibition at 250 µg/disc (Aspergillus flavus [1]): 14 mm
MIC (Aspergillus flavus [2]): 6 µg/mL (≈ 13.4 µM)
zone of inhibition at 200 µg/disc (Candida albicans): 9 mm
zone of inhibition at 200 µg/disc (Staphylococcus aureus): 12 mm
zone of inhibition at 200 µg/disc (Bacillus subtilis): 17 mm
